The text below walks through data of patent US12215111B2, “Imidazopyridazine IL-17 inhibitor compounds” (Janssen Pharmaceutica NV, priority 2021, dated 2025).

In assay [1] the target is IL-17A(FLAG-Tagged): IL-17RA(His-Tagged) (Homo sapiens, UniProt Q16552, K93Q). The experiment in a line: IL-17A(FLAG-tagged):IL-17RA(His-tagged) binding disruption Eu-HTRF assay, Protocol 1. The following applies: FLAG tagged IL-17A at 2× final concentration (2.5 nM); simple average if tested more than once. An excerpt:
IL-17A(FLAG-Tagged): IL-17RA(His-Tagged) Binding Disruption Eu-HTRF Assay
An antibody directed against the FLAG tag of IL-17A (SEQ ID NO:1) is labeled with the HTRF donor chromophore (Europium-cryptate). IL-17A is present as a dimer that is “locked into” this quaternary structure due to the formation of loop-spanning […] disulfide bridges. The construct of IL-17RA used in the assay excludes the outer-membrane portion of the receptor and is fused to a C-terminal 10×His tag (SEQ ID NO:2). An antibody directed against the His tag of the IL-17RA chimera is labeled with the HTRF acceptor chromophore (“D2”). The fluorescence-resonance energy transfer (FRET) depends on the vicinity of the donor chromophore to the acceptor, and interruption of the binding between the IL-17A and IL-17RA causes the reduction/loss of FRET. Therefore, this assay allows to evaluate the compound effect on the binding IL-17A and IL-17RA by monitoring the fluorescence intensity of donor vs acceptor. The assay was run using either Protocol 1 or Protocol 2 described below.
Protocol 1: 40 nL of 2-fold serial diluted compound solution for total 22 dilution points is added into each well of a 1536-well, white, low-volume, non-binding plate (Greiner #782904), then 2 μl of FLAG tagged IL-17A at 2× final concentration (2.5 nM) in solution of PBS+0.01% Triton-X100 is added to each well. The assay plate is briefly centrifuged then incubated for 1 h at rt. A mixed solution is prepared containing 2×5 nM 10HIS×IL-17RA, 2×2.5 nM Eu-anti-FLAG (CISBIO), 2×5 nM D2-anti-HIS (CISBIO) in PBS+0.01% Triton-X100+200 mM Potassium Fluoride (Sigma 60238) and […] of mix is added to each well of the assay plate. The plate is briefly centrifuged then incubated for 2 h at rt. The HTRF intensities at the wavelength of donor (620 nm) and acceptor (665 nm) are measured using BMG Pherastar. The ratio between intensities at two wavelengths is calculated and plotted against the compound concentration and the data is fitted to a one-site competition model to yield IC50 of the compound.
In general terms: Time-resolved FRET reads energy transfer from a long-lived donor to a nearby acceptor.

Assay [2] concerns IL-17A-induced G-CSF production in human normal keratinocyte (NHK). Briefly: NHK assay: IL-17A-induced G-CSF production in normal human keratinocytes. The following applies: IL-17A 5 ng/mL, 24 h at 37° C., G-CSF by HTRF, simple average if tested more than once. It counts as cell-based. Here is the method: IL-17A acts directly on keratinocytes through binding to dimeric receptor IL-17RA/RC and drives the production of a number of inflammatory mediators known to be elevated in psoriasis lesional tissue. IL-17A small molecule inhibitors that block the IL-17A to interact with IL-17R would inhibit the IL-17A signaling in its targeted cells such as keratinocytes. The compound functional activity is evaluated for its impact on IL-17A-induced G-CSF production in human normal keratinocyte (NHK).
Adult normal human keratinocytes are cultured in keratinocyte growth medium (Lonza) in a flask till reaching ˜90% confluence, then cells are transferred to a 384-well plate at density of 3000-4000 cell/well. Recombinant human IL-17A (Gibco PHC9174) is pre-incubated with titrated compound or DMSO for 1 h at rt then added to the cell culture plate. The final concentration of IL-17A is 5 ng/mL and DMSO is 0.2%, in the culture containing 5% FBS. Cells are cultured/treated for 24 h at 37° C. Supernatants are collected and G-CSF production is measured through HTRF technology using Human G-CSF Kit (CisBio). G-CSF concentration was extrapolated from the standard curve and IC50 is determined using GraphPad Prism. Cell viability is also evaluated using CellTiter-Glo kit (Promega) and effect of compound on cell viability is compared to DMSO control.

Molecules are shown by their SMILES. Bounds are passed on as bounds.

UniProt Q16552, sequence (Q16552 with tags, fused parts or gaps K93Q): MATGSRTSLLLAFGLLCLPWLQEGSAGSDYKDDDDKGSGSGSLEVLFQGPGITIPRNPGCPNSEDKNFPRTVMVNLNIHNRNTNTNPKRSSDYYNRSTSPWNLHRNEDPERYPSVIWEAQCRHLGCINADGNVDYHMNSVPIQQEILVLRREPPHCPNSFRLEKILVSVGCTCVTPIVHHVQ

Take `Cc1nonc1C(=O)N[C@H](c1cn2ncc([C@@H](C3CC3)N3CC(CC(F)(F)F)NC3=O)cc2n1)C1CCC(F)(F)CC1` (single isomer, unassigned) [Example 19, N—((S)-(7-((R)-Cyclopropyl((R*)-2-oxo-4-(2,2,2-trifluoroethyl)imidazolidin-1-yl)methyl)imidazo[1,2-b]pyridazin-2-yl)(4,4-difluorocyclohexyl)methyl)-4-methyl-1,2,5-oxadiazole-3-carboxamide]: the IC50 in assay [1] was under 4 µM; in assay [2] (Homo sapiens, Keratinocyte), under 4 µM.

Turning to `Cc1nonc1C(=O)N[C@H](c1cn2ncc([C@@H](C3CC3)N3CC(CC(F)(F)F)NC3=O)cc2n1)C1CCC(F)(F)CC1` (single isomer, unassigned) [Example 20, N—((S)-(7-((R)-Cyclopropyl((S*)-2-oxo-4-(2,2,2-trifluoroethyl)imidazolidin-1-yl)methyl)imidazo[1,2-b]pyridazin-2-yl)(4,4-difluorocyclohexyl)methyl)-4-methyl-1,2,5-oxadiazole-3-carboxamide], the IC50 in assay [1] and in assay [2] was under 4 µM each time.

Regarding `Cc1nonc1C(=O)N[C@H](c1cn2ncc(CN3CCNC3=O)cc2n1)C1CCC(F)(F)CC1` [Example 1, (S)—N-((4,4-Difluorocyclohexyl)(7-((2-oxoimidazolidin-1-yl)methyl)imidazo[1,2-b]pyridazin-2-yl)methyl)-4-methyl-1,2,5-oxadiazole-3-carboxamide], the IC50 in assay [1] was under 4 µM; in assay [2] (Homo sapiens, Keratinocyte), 4 to 10 µM.

As to `O=C(N[C@H](c1cn2ncc(CN3CCNC3=O)cc2n1)C1CCC(F)(F)CC1)c1nonc1C1CC1` [Example 2, (S)-4-Cyclopropyl-N-((4,4-difluorocyclohexyl)(7-((2-oxoimidazolidin-1-yl)methyl)imidazo[1,2-b]pyridazin-2-yl)methyl)-1,2,5-oxadiazole-3-carboxamide], the IC50 in assay [1] was under 4 µM; in assay [2] (Homo sapiens, Keratinocyte) it was under 4 µM.

Take `CC(C)n1nccc1C(=O)N[C@H](c1cn2ncc(CN3CCNC3=O)cc2n1)C1CCC(F)(F)CC1` [Example 3, (S)—N-((4,4-Difluorocyclohexyl)(7-((2-oxoimidazolidin-1-yl)methyl)imidazo[1,2-b]pyridazin-2-yl)methyl)-1-isopropyl-1H-pyrazole-5-carboxamide]: the IC50 was under 4 µM in assay [1] and under 4 µM in assay [2] (Homo sapiens, Keratinocyte).

Consider `C[C@H]1CN(Cc2cnn3cc([C@@H](NC(=O)c4nonc4C4CC4)C4CCC(F)(F)CC4)nc3c2)C(=O)N1` [Example 4, 4-Cyclopropyl-N—((S)—(4,4-difluorocyclohexyl)(7-(((S)-4-methyl-2-oxoimidazolidin-1-yl)methyl)imidazo[1,2-b]pyridazin-2-yl)methyl)-1,2,5-oxadiazole-3-carboxamide], for which the IC50 in assay [1] is under 4 µM; in assay [2] (Homo sapiens, Keratinocyte) it was under 4 µM.

On to `CC(C)n1nccc1C(=O)N[C@H](c1cn2ncc(CN3C[C@H](C)NC3=O)cc2n1)C1CCC(F)(F)CC1` [Example 5, N—((S)—(4,4-Difluorocyclohexyl)(7-(((S)-4-methyl-2-oxoimidazolidin-1-yl)methyl)imidazo[1,2-b]pyridazin-2-yl)methyl)-1-isopropyl-1H-pyrazole-5-carboxamide], for which the IC50 was under 4 µM in assay [1] and over 10 µM in assay [2] (Homo sapiens, Keratinocyte).

Take `C[C@@H]1CN(Cc2cnn3cc([C@@H](NC(=O)c4nonc4C4CC4)C4CCC(F)(F)CC4)nc3c2)C(=O)N1` [Example 6, 4-Cyclopropyl-N—((S)—(4,4-difluorocyclohexyl)(7-(((R)-4-methyl-2-oxoimidazolidin-1-yl)methyl)imidazo[1,2-b]pyridazin-2-yl)methyl)-1,2,5-oxadiazole-3-carboxamide]: the IC50 in assay [1] was under 4 µM; in assay [2] (Homo sapiens, Keratinocyte), under 4 µM.

On to `COC[C@H](c1cnn2cc([C@H](COC(C)(C)C(F)(F)F)NC(=O)c3nonc3C)nc2c1)N1C[C@@H](C(F)(F)F)NC1=O` [Example 9], for which the IC50 in assay [1] is under 4 µM; in assay [2] (Homo sapiens, Keratinocyte) it was under 4 µM.

`COC[C@H](c1cnn2cc([C@H](COC(C)(C)C(F)(F)F)NC(=O)c3nonc3C3CC3)nc2c1)N1C[C@@H](C(F)(F)F)NC1=O` [Example 10]: the IC50 in assay [1] was under 4 µM; in assay [2] (Homo sapiens, Keratinocyte), under 4 µM.

As for `COC[C@H](c1cnn2cc([C@H](COC(C)(C)C(F)(F)F)NC(=O)c3ccnn3C(C)C)nc2c1)N1C[C@@H](C(F)(F)F)NC1=O` [Example 11], the IC50 was under 4 µM in assay [1] and under 4 µM in assay [2] (Homo sapiens, Keratinocyte).

As to `[2H]C([2H])([2H])C([2H])([2H])n1nccc1C(=O)N[C@@H](COC(C)(C)C(F)(F)F)c1cn2ncc([C@@H](COC)N3C[C@@H](C(F)(F)F)NC3=O)cc2n1` [Example 12], the IC50 in assay [1] is under 4 µM; in assay [2] (Homo sapiens, Keratinocyte) it was under 4 µM.

As to `Cc1nonc1C(=O)N[C@H](c1cn2ncc([C@@H](C3CC3)N3C[C@@H](C4CC4)NC3=O)cc2n1)C1CCC(F)(F)CC1` [Example 17, N—[(S)—[7-[(R)-Cyclopropyl-[(4R)-4-cyclopropyl-2-oxo-imidazolidin-1-yl]methyl]imidazo[1,2-b]pyridazin-2-yl]-(4,4-difluorocyclohexyl)methyl]-4-methyl-1,2,5-oxadiazole-3-carboxamide], the IC50 in assay [1] is under 4 µM; in assay [2] (Homo sapiens, Keratinocyte), under 4 µM.

Regarding `Cc1nonc1C(=O)N[C@H](c1cn2ncc([C@@H](C3CC3)N3C[C@@H](C(C)C)NC3=O)cc2n1)C1CCC(F)(F)CC1` [Example 18, N—[(S)—[7-[(R)-Cyclopropyl-[(4R)-4-isopropyl-2-oxo-imidazolidin-1-yl]methyl]imidazo[1,2-b]pyridazin-2-yl]-(4,4-difluorocyclohexyl)methyl]-4-methyl-1,2,5-oxadiazole-3-carboxamide], the IC50 is under 4 µM in assay [1] and under 4 µM in assay [2] (Homo sapiens, Keratinocyte).

In the case of `Cc1nonc1C(=O)N[C@H](c1cn2ncc([C@H](N3C[C@@H](C(F)(F)F)NC3=O)C3(C#N)CCC3)cc2n1)C1CCC(F)(F)CC1` [Example 22, N—((S)-(7-((S)—(1-Cyanocyclobutyl)((S)-2-oxo-4-(trifluoromethyl)imidazolidin-1-yl)methyl)imidazo[1,2-b]pyridazin-2-yl)(4,4-difluorocyclohexyl)methyl)-4-methyl-1,2,5-oxadiazole-3-carboxamide], the IC50 is under 4 µM in assay [1] and under 4 µM in assay [2] (Homo sapiens, Keratinocyte).

On to `COC[C@H](c1cnn2cc([C@H](COC(C)(C)C(F)(F)F)NC(=O)c3ncnn3C(C)C)nc2c1)N1C[C@@H](C(F)(F)F)NC1=O` [Example 36, 1-Isopropyl-N—((R)-1-(7-((S)-2-methoxy-1-((S)-2-oxo-4-(trifluoromethyl)imidazolidin-1-yl)ethyl)imidazo[1,2-b]pyridazin-2-yl)-2-((1,1,1-trifluoro-2-methylpropan-2-yl)oxy)ethyl)-1H-1,2,4-triazole-5-carboxamide], for which the concentration for half-maximal inhibition (IC50) in assay [1] was under 4 µM; in assay [2] (Homo sapiens, Keratinocyte), under 4 µM.

The term IC50 denotes the concentration that inhibits the measured activity by half. Read a low IC50 as inhibition by little substance.
